According to ChEMBL document CHEMBL4304757, “Synthetic heterocyclic candidates as promising α-glucosidase inhibitors: An overview” (Eur J Med Chem, 2019):

assay: Inhibition of yeast alpha-glucosidase using p-nitrophenyl-alpha-d-glucopyranoside as substrate preincubated for 10 mins followed by substrate addition measured after 30 mins; design: species or system Saccharomyces cerevisiae

IC50 | SMILES
2.5 to 46 µM | Cc1ccc(-n2c(-c3cn(-c4ccccc4)nc3-c3cc4cc(Br)ccc4oc3=O)nc(-c3ccccc3)c2-c2ccccc2)cc1
2.7 µM | O=c1oc2ccccc2cc1-c1nn(-c2ccccc2)cc1-c1nc(-c2ccccc2)c(-c2ccccc2)[nH]1
8.4 to 179 µM | Cc1cc2nc(-c3ccc(C(=O)N/N=C/c4ccccn4)cc3)[nH]c2cc1C
2.5 to 46 µM | COc1ccc(-n2c(-c3cn(-c4ccccc4)nc3-c3cc4ccccc4oc3=O)nc(-c3ccccc3)c2-c2ccccc2)cc1
2.7 to 23 µM | Clc1ccc(-c2nn(-c3ccccc3)cc2-c2nc(-c3ccccc3)c(-c3ccccc3)[nH]2)cc1
35 to 297 µM | Cc1cc2nc(-c3ccc(C(=O)NNC(=S)Nc4ccc(Cl)cc4)cc3)[nH]c2cc1C
8.4 to 179 µM | Cc1cc2nc(-c3ccc(C(=O)N/N=C/c4ccc([N+](=O)[O-])cc4)cc3)[nH]c2cc1C
8.4 to 179 µM | Cc1cc2nc(-c3ccc(C(=O)N/N=C/c4ccc(O)cc4)cc3)[nH]c2cc1C
2.7 to 23 µM | O=[N+]([O-])c1ccc(-c2nn(-c3ccccc3)cc2-c2nc(-c3ccccc3)c(-c3ccccc3)[nH]2)cc1
8.4 to 179 µM | Cc1ccc(/C=N/NC(=O)c2ccc(-c3nc4cc(C)c(C)cc4[nH]3)cc2)cc1
2.7 to 23 µM | O=[N+]([O-])c1cccc(-c2nn(-c3ccccc3)cc2-c2nc(-c3ccccc3)c(-c3ccccc3)[nH]2)c1
8.4 to 179 µM | COc1ccc(/C=N/NC(=O)c2ccc(-c3nc4cc(C)c(C)cc4[nH]3)cc2)cc1
2.7 to 23 µM | c1ccc(-c2nn(-c3ccccc3)cc2-c2nc(-c3ccccc3)c(-c3ccccc3)[nH]2)cc1
35 to 297 µM | Cc1cc2nc(-c3ccc(C(=O)NNC(=S)Nc4ccccc4Br)cc3)[nH]c2cc1C
35 to 297 µM | Cc1cc2nc(-c3ccc(C(=O)NNC(=S)Nc4ccccc4Cl)cc3)[nH]c2cc1C
2.5 to 46 µM | CCCn1c(-c2cn(-c3ccccc3)nc2-c2cc3ccccc3oc2=O)nc(-c2ccccc2)c1-c1ccccc1
8.4 to 179 µM | Cc1cc2nc(-c3ccc(C(=O)N/N=C/c4ccc(Cl)cc4)cc3)[nH]c2cc1C
2.7 to 23 µM | Brc1ccc(-c2nn(-c3ccccc3)cc2-c2nc(-c3ccccc3)c(-c3ccccc3)[nH]2)cc1
2.7 to 23 µM | O=[N+]([O-])c1ccc(-n2cc(-c3nc(-c4ccccc4)c(-c4ccccc4)[nH]3)c(-c3ccccc3)n2)cc1

IC50 | SMILES
35 to 297 µM | Cc1cc2nc(-c3ccc(C(=O)NNC(=S)Nc4ccc(F)cc4)cc3)[nH]c2cc1C
8.4 to 179 µM | Cc1cc2nc(-c3ccc(C(=O)N/N=C/c4cccc(Cl)c4)cc3)[nH]c2cc1C
2.5 µM | O=c1oc2ccc(Br)cc2cc1-c1nn(-c2ccccc2)cc1-c1nc(-c2ccccc2)c(-c2ccccc2)n1-c1ccc(Cl)cc1
2.7 to 23 µM | COc1ccc(-c2nn(-c3ccccc3)cc2-c2nc(-c3ccccc3)c(-c3ccccc3)[nH]2)cc1
2.7 to 23 µM | O=c1oc2ccc(Br)cc2cc1-c1nn(-c2ccccc2)cc1-c1nc(-c2ccccc2)c(-c2ccccc2)[nH]1
2.5 to 46 µM | COc1ccc(-n2c(-c3cn(-c4ccccc4)nc3-c3cc4cc(Br)ccc4oc3=O)nc(-c3ccccc3)c2-c2ccccc2)cc1
2.5 to 46 µM | O=c1oc2ccccc2cc1-c1nn(-c2ccccc2)cc1-c1nc(-c2ccccc2)c(-c2ccccc2)n1-c1ccc(Br)cc1
2.5 to 46 µM | O=c1oc2ccc(Br)cc2cc1-c1nn(-c2ccccc2)cc1-c1nc(-c2ccccc2)c(-c2ccccc2)n1-c1ccc(Br)cc1
2.7 to 23 µM | c1ccc(-c2ccc(-c3nn(-c4ccccc4)cc3-c3nc(-c4ccccc4)c(-c4ccccc4)[nH]3)cc2)cc1
35 to 297 µM | Cc1cc2nc(-c3ccc(C(=O)NNC(=S)Nc4ccccc4F)cc3)[nH]c2cc1C
8.4 to 179 µM | Cc1cc2nc(-c3ccc(C(=O)N/N=C/c4ccccc4C)cc3)[nH]c2cc1C
2.5 to 46 µM | Cc1cc(C)cc(-n2c(-c3cn(-c4ccccc4)nc3-c3cc4ccccc4oc3=O)nc(-c3ccccc3)c2-c2ccccc2)c1
35 to 297 µM | Cc1ccc(NC(=S)NNC(=O)c2ccc(-c3nc4cc(C)c(C)cc4[nH]3)cc2)cc1
35 to 297 µM | Cc1cc2nc(-c3ccc(C(=O)NNC(=S)Nc4ccc(Br)cc4)cc3)[nH]c2cc1C
2.7 to 23 µM | Cc1nn(-c2ccc([N+](=O)[O-])cc2)c(C)c1-c1nc(-c2ccccc2)c(-c2ccccc2)[nH]1
8.4 to 179 µM | Cc1cc2nc(-c3ccc(C(=O)N/N=C/c4ccccc4O)cc3)[nH]c2cc1C
2.5 to 46 µM | O=c1oc2ccccc2cc1-c1nn(-c2ccccc2)cc1-c1nc(-c2ccccc2)c(-c2ccccc2)n1-c1ccc(Cl)cc1
2.5 to 46 µM | Cc1cc(C)cc(-n2c(-c3cn(-c4ccccc4)nc3-c3cc4cc(Br)ccc4oc3=O)nc(-c3ccccc3)c2-c2ccccc2)c1

Continued, molecule first:

SMILES | IC50
Cc1cc2nc(-c3ccc(C(=O)N/N=C/c4cc(O)c(O)c(O)c4)cc3)[nH]c2cc1C | 8.4 µM
Cc1cc2nc(-c3ccc(C(=O)NNC(=S)Nc4cccc(Br)c4)cc3)[nH]c2cc1C | 35 to 297 µM
Cc1cc2nc(-c3ccc(C(=O)NNC(=S)Nc4ccc(C(F)(F)F)cc4)cc3)[nH]c2cc1C | 35 to 297 µM
COc1cccc(/C=N/NC(=O)c2ccc(-c3nc4cc(C)c(C)cc4[nH]3)cc2)c1 | 8.4 to 179 µM
COc1ccc(/C=N/NC(=O)c2ccc(-c3nc4cc(C)c(C)cc4[nH]3)cc2)c(O)c1 | 8.4 to 9.9 µM
Cc1cccc(/C=N/NC(=O)c2ccc(-c3nc4cc(C)c(C)cc4[nH]3)cc2)c1 | 8.4 to 179 µM
Cc1cc2nc(-c3ccc(C(=O)N/N=C/c4cccc(O)c4)cc3)[nH]c2cc1C | 8.4 to 179 µM
Cc1cc2nc(-c3ccc(C(=O)NNC(=S)Nc4ccc([N+](=O)[O-])cc4)cc3)[nH]c2cc1C | 35 µM
Cc1cc2nc(-c3ccc(C(=O)N/N=C/c4ccc(O)cc4O)cc3)[nH]c2cc1C | 8.4 to 9.9 µM
Cc1nn(-c2ccc(Nc3cccc(Cl)c3)nn2)c(C)c1[N+](=O)[O-] | 19 µM
COc1ccc(/C=N/NC(=O)c2ccc(-c3nc4cc(C)c(C)cc4[nH]3)cc2)cc1OC | 8.4 to 179 µM
Cc1cc2nc(-c3ccc(C(=O)N/N=C/c4cccc(F)c4)cc3)[nH]c2cc1C | 8.4 to 179 µM
Cc1cc2nc(-c3ccc(C(=O)NNC(=S)Nc4cccc([N+](=O)[O-])c4)cc3)[nH]c2cc1C | 35 to 297 µM
Cc1cc2nc(-c3ccc(C(=O)NNC(=S)Nc4ccc(Cl)c(Cl)c4)cc3)[nH]c2cc1C | 35 to 297 µM
COc1ccc(O)c(/C=N/NC(=O)c2ccc(-c3nc4cc(C)c(C)cc4[nH]3)cc2)c1 | 8.4 to 9.9 µM
Cc1cc2nc(-c3ccc(C(=O)N/N=C/c4ccco4)cc3)[nH]c2cc1C | 8.4 to 179 µM
COc1cccc(NC(=S)NNC(=O)c2ccc(-c3nc4cc(C)c(C)cc4[nH]3)cc2)c1 | 35 to 297 µM
Cc1cc2nc(-c3ccc(C(=O)N/N=C/c4ccc(O)c(Br)c4)cc3)[nH]c2cc1C | 8.4 to 179 µM
Cc1cc2nc(-c3ccc(C(=O)N/N=C/c4cc(O)ccc4O)cc3)[nH]c2cc1C | 8.4 to 9.9 µM
COc1ccc(/C=N/NC(=O)c2ccc(-c3nc4cc(C)c(C)cc4[nH]3)cc2)cc1O | 8.4 to 179 µM
Cc1cccc(NC(=S)NNC(=O)c2ccc(-c3nc4cc(C)c(C)cc4[nH]3)cc2)c1 | 35 to 297 µM
Cc1cc2nc(-c3ccc(C(=O)N/N=C/c4cccnc4)cc3)[nH]c2cc1C | 8.4 to 179 µM
Cc1cc2nc(-c3ccc(C(=O)NNC(=S)Nc4cccc(F)c4)cc3)[nH]c2cc1C | 35 to 297 µM
Cc1cc2nc(-c3ccc(C(=O)N/N=C/c4ccncc4)cc3)[nH]c2cc1C | 8.4 to 179 µM
Cc1cc2nc(-c3ccc(C(=O)N/N=C/c4cccc(O)c4O)cc3)[nH]c2cc1C | 8.4 to 9.9 µM
